Measured values: ChEMBL document CHEMBL3046929, “Ethyl 4-[2-(6-Methyl-3-pyridyloxy)butyloxy]benzoate, a novel anti-juvenile hormone agent” (2003)
Active and inactive are the calls of the source. The calls are words filed in the database; no cut-off is given here.

Legend:
Bombyx mori [1] = assay: Anti-juvenile activity against newly molted fourth-instar larval stage of Bombyx mori Shunrei x shougetsu reared on artificial diet assessed as induction of precocious pupation at 100 ug; format: functional, organism-based
Bombyx mori [2] = assay: Anti-juvenile activity against newly molted third-instar larval stage of Bombyx mori Shunrei x shougetsu reared on artificial diet assessed as induction of precocious pupation at 100 ug; format: functional, organism-based
Bombyx mori [3] = assay: Anti-juvenile activity against newly molted third-instar larval stage of Bombyx mori Shunrei x shougetsu reared on artificial diet assessed as induction of precocious metamorphosis at 100 ug/larva relative to control; format: functional
Bombyx mori [4] = assay: Anti-juvenile activity against newly molted third-instar larval stage of Bombyx mori Shunrei x shougetsu reared on artificial diet assessed as induction of precocious metamorphosis at 1 ug/larva relative to control; format: functional
Bombyx mori [5] = assay: Anti-juvenile activity against newly molted fourth-instar larval stage of Bombyx mori Shunrei x shougetsu reared on artificial diet assessed as induction of precocious pupation; format: functional, organism-based
Bombyx mori [6] = assay: Anti-juvenile activity against newly molted third-instar larval stage of Bombyx mori Shunrei x shougetsu reared on artificial diet assessed as induction of precocious metamorphosis at 10 ug/larva relative to control; format: functional
Bombyx mori [7] = assay: Anti-juvenile activity against newly molted third-instar larval stage of Bombyx mori Shunrei x shougetsu reared on artificial diet assessed as mortality at 100 ug/larva relative to control; format: functional
Bombyx mori [8] = assay: Anti-juvenile activity against newly molted fourth-instar larval stage of Bombyx mori Shunrei x shougetsu reared on artificial diet assessed as induction of precocious metamorphosis in presence of juvenile hormone agonist methoprene; format: functional
Bombyx mori [9] = assay: Anti-juvenile activity against newly molted fourth-instar larval stage of Bombyx mori Shunrei x shougetsu reared on artificial diet assessed as induction of precocious metamorphosis in presence of 20-hydroxyecdysone; format: functional
Bombyx mori [10] = assay: Anti-juvenile activity against newly molted third-instar larval stage of Bombyx mori Shunrei x shougetsu reared on artificial diet assessed as induction of precocious metamorphosis in presence of juvenile hormone agonist methoprene; format: functional
Bombyx mori [11] = assay: Anti-juvenile activity against newly molted third-instar larval stage of Bombyx mori Shunrei x shougetsu reared on artificial diet assessed as blackening of cuticle measured after third ecdysis; format: functional, organism-based
Bombyx mori [12] = assay: Anti-juvenile activity against newly molted third-instar larval stage of Bombyx mori Shunrei x shougetsu reared on artificial diet assessed as induction of precocious pupation at 1 to 100 ug/larva; format: functional, organism-based
Bombyx mori [13] = assay: Anti-juvenile activity against newly molted third-instar larval stage of Bombyx mori Shunrei x shougetsu reared on artificial diet assessed as induction of precocious metamorphosis in presence of 20-hydroxyecdysone; format: functional

Row | Structure (SMILES) | Activity (Bombyx mori [1]) | Activity (Bombyx mori [2]) | Activity (Bombyx mori [6]) | also measured
1 | CCC(COc1cccc(Cl)c1)Oc1ccc(C)nc1 (stereo unspecified) | inactive | inactive | – | –
2 | CCOC(=O)c1cccc(OCC(CC)Oc2ccc(C)nc2)c1 (stereo unspecified) | inactive | inactive | – | –
3 | CCC(COc1ccc(Cl)cc1)Oc1ccc(C)nc1 (stereo unspecified) | inactive | inactive | – | –
4 | CCc1ccc(OCC(CC)Oc2ccc(C)nc2)cc1 (stereo unspecified) | inactive | inactive | – | –
5 | CCOC(=O)c1ccc(OCC(CC)OC(=O)C(C)(C)C)cc1 (stereo unspecified) | – | – | 23% | Activity (Bombyx mori [3]): 0%; Activity (Bombyx mori [4]): 0%; Activity (Bombyx mori [5]): inactive
6 | Cc1ccc(OCCOc2cccc(Cl)c2)cn1 | – | – | 0% | mortality (Bombyx mori [7]): 100%
7 | CCOC(=O)c1ccc(OCC(CC)Oc2ccc(C)nc2)cc1 (stereo unspecified) | – | – | 40% | Activity (Bombyx mori [8]): 0%; Activity (Bombyx mori [9]): 84%; Activity (Bombyx mori [10]): 0%; Activity (Bombyx mori [11]): Active; Activity (Bombyx mori [12]): inactive; Activity (Bombyx mori [3]): 83%; Activity (Bombyx mori [4]): 0%; Activity (Bombyx mori [5]): inactive; Activity (Bombyx mori [13]): 90%
8 | CCc1cccc(OCC(CC)Oc2ccc(C)nc2)c1 (stereo unspecified) | inactive | inactive | – | –
